Usually IC50 stands for the point on the concentration scale where inhibition reaches its midpoint.

The assay has as its target T1, Nuclear receptor ROR-gamma (Homo sapiens, UniProt P51449).
T1 sequence (P51449 whole entry): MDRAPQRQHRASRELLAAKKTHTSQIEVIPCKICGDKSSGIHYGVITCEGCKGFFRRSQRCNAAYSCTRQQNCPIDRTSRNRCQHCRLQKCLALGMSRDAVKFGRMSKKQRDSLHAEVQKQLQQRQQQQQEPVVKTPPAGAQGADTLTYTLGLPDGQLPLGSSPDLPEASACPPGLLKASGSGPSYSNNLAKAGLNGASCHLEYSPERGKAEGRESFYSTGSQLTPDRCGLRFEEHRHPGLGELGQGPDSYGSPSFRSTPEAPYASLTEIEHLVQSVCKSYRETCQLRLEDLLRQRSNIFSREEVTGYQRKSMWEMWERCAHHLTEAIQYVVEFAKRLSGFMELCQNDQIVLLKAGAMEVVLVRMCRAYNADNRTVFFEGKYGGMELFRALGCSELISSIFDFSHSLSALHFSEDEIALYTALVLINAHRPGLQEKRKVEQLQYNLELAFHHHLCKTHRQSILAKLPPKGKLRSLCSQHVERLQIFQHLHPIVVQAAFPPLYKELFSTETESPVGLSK
The assay is described as follows: GAL4-RORgamma Transactivation: The RORγ transactivation model was developed from the line HG5LN, which is a HeLa line that stably expresses a luciferase reporter gene controlled by a pentamer of the GAL4 recognition domain of yeast and of a β-globin promoter. The HG5LN line was stably transfected by the DNA-binding domain (DBD) of GAL4 fused to the ROR gamma ligand-binding domain (LBD). Molecules that inhibit the ROR gamma constitutive activity reduce the luciferase expression, thus leading to a reduction in the emitted luminescence.The cells are seeded in 384-well plates (5000 cells in 45 μL/well of culture medium containing 10% fetal calf serum) and incubated for 4 hours at 37° C., 5% CO2. 5 μL of the test molecules (compounds described in the tables described above) are then added to each well and the plates are incubated for 18 hours at a temperature of 37° C. under 5% of CO2. 20 μL of luciferase substrate (Promega) are added to each well and the luminescence emitted is read by a microplate reader.The luminescence units (“RLU”) are normalized by positive controls (“POS” containing a saturated concentration of benzenesulfonamide, N-(2,2,2-trifluoroethyl)-N-[4-[2,2,2-trifluoro-1-hydroxy-1-(trifluoromethyl)ethyl]phenyl]) and negative controls (“NEG” containing DMSO): % inhibition=((RLU−NEG)*100)/(POS−NEG). The IC50 values are calculated from a 4-parameter logistic model using the XLFit software (IDBS).

`CCc1ccc(N(CC(C)C)S(=O)(=O)c2ccc(OCC3CCSCC3)c(S(C)(=N)=O)c2)cc1` (stereo not drawn): the concentration for half-maximal inhibition (IC50) was < 100 nM.

`CCc1ccc(N(CC(C)C)S(=O)(=O)c2ccc3c(c2)N(CC2CCOCC2)CCS3(=N)=O)cc1` (stereo not drawn): the half-inhibitory concentration (IC50) is > 1000 nM.

For `CCc1ccc(N(CC(C)C)S(=O)(=O)c2ccc(NC3CCNC(=O)C3)c(S(C)(=N)=O)c2)cc1` (stereo not drawn), the IC50 is > 1000 nM.

(Values after ChEMBL document CHEMBL5727378, “Benzenesulfonamide derivatives as inverse agonists of retinoid-related orphan receptor gamma (RORγ(T))” (2019).)
